According to patent publication US20230201217A1 (priority 2019, published 2023):
“And” between values parts separate entries of the source, which are not always exact repeats. Equal values may be shown once. “Also recorded” adds a separate entry of the source.

Tests used:
male cynomolgus monkeys = experiment: Cardiovascular and respiratory radiotelemetry in conscious cynomolgus monkeys; format: in vivo, cynomolgus monkey
Method: Clinical observations were performed at approximately 4 and 24 hours post-dosing.

Solubility = format: physicochemical
From the text: 18-MC HCl can be supplied as a dry powder packaged in double plastic bags in an HDPE bottle with desiccant. The 18-MC HCl can be formulated at the clinical site into a solution for dosing patients. […] Based on the properties of the compound, it can also be formulated in a solid oral formulation (tablet, capsule, sachets, granules, etc.)
(§1) Most preferably, an oral dose of the composition is used. An oral dosing formulation was validated by a GLP study.

[1] = system: dopamine release in the nucleus accumbens shell; settings: 40 mg/kg pretreatment, 19 hours beforehand; cited from earlier work
CD-1 mice = experiment: 14-day oral gavage GLP toxicity study in CD-1 mice; format: in vivo, mouse
Method: All test article-treated animals underwent up-titration of dosage levels prior to reaching the maximum daily dose, which was administered for 14 consecutive days. […] The dose volume was 10 mL/kg for all groups. Groups 1 and 4 each consisted of 25 animals/sex and Groups 2-3 each consisted of 20 animals for each sex. Following 14 days of dose administration, 15 mice/sex/toxicology group were euthanized; the remaining 5, (10 for the control and high dose group) mice/sex/toxicology group were euthanized following a 14-day nondosing (recovery) period. Following the final blood collection (study day 13), all toxicokinetic animals (from a satellite group of 18 animals/sex/dose level) were euthanized.
For toxicology assessment, all animals were observed twice daily for mortality and moribundity. Clinical observations were recorded daily, and detailed physical examinations were conducted weekly. Body weights and food consumption were recorded twice weekly. Body temperature was recorded prior to dosing and following dosing at the time that post-dosing clinical observations were conducted. Functional observational battery (FOB) data were recorded for all animals near the start of the treatment period, near the end of the treatment period, and near the end of the recovery period. Ophthalmic examinations were performed during pretest and near the end of the dosing period. At the primary necropsy 10 animals/sex/group and at the recovery necropsy 5 animals/sex/group, were selected for complete necropsies, clinical pathology assessment (hematology and serum chemistry), organ weight collection, and microscopic examination of a full list of tissues. At each termination interval, 5 animals/sex/group were assigned for neuropathology assessments that involved perfusion fixation, comprehensive sectioning of the brain and collection of selected peripheral nerves, and the employment of special stains used to detect subtle neuronal injury.

[2] = Stability of oral dosing solution; format: physicochemical
From the text: as §1

male Sprague-Dawley rats = experiment: Intracranial self-stimulation (ICSS), frequency-rate procedure
plasma protein [3] = experiment: Plasma protein binding; format: in vitro ADME, Rat
From the text: (§2) There is no information on the protein binding of any of the metabolites.

CYP1A2 = CYP1A2 (Homo sapiens, UniProt P05177); settings: recombinant enzyme
Method: Control incubations were performed for each assay with appropriate positive inhibitory controls.

[4] = system: isolated rabbit Purkinje fibers; experiment: Action potential duration in rabbit cardiac Purkinje fibers
Method: The in vitro effect of 18-MC on the cardiac action potential was evaluated in isolated rabbit Purkinje fibers (FIG. 13). […] Fibers with resting potentials more negative than −80 mV and normal action potential morphology (APD90≥150 ms) were used in the study. Fibers were stimulated continuously at BCL of 1 second for at least 5 minutes. At the end of this period, baseline control APD rate dependence was measured using stimulus pulse trains consisting of approximately 50 pulses at BCL of 1 and 0.5 seconds. After returning to BCL of 1 second, 18-MC (or dl-sotalol) at the lowest concentration was applied for at least 20 minutes to allow equilibration, and the stimulus trains repeated. […] The average responses from the last five recorded action potentials from each stimulus train were analyzed for each test condition.
Electrophysiological recordings were performed with four nominal concentrations of 18-MC (0.3, 1, 3, and 10 μM) added sequentially to four preparations at two stimulus intervals (basic cycle lengths of 1 s and 0.5 s). The effects of 18-MC on action potential parameters were compared to time-matched vehicle control sequences.

plasma protein [5] = experiment: Plasma protein binding, all species tested; format: in vitro ADME
Method: In all the species tested in pre-clinical studies, 18-MC is rapidly absorbed following oral administration with Tmax occurring in less than 0.5 hours following oral administration. After oral administration, the elimination of 18-MC is multi-compartmental. In plasma, 18-MC is highly protein bound (92% to 98%). 18-MC is also rapidly and extensively metabolized, presumably by first pass metabolism. At least […] different metabolites have been detected both in vitro and in vivo, further described below (M1-M9, P1-P3). The major metabolites (those with exposure greater than 10% of the total drug related material) appear to change with the dose and duration of dosing. Major metabolites include M2, M4, M5, M8, M9 and P2 depending on the animal species tested, and the dose and duration of dosing.
as §2

[6] = Toxicokinetics, 14-day study in cynomolgus monkeys; format: in vivo, cynomolgus monkey
Method: The animals received 400 mg/kg on Day 1 and thereafter 300 mg/kg/day. The relative concentrations of the metabolites and 18-MC were determined by the peak-heights by UPLC/MS/MS method. Major metabolites were identified as M5>>M2>>P2. Metabolite M4 was on the borderline to be considered a major metabolite. The parent 18-MC exposure was less than 3% of the total drug and metabolite exposure.
Assessments of neurobehavioral effects and general toxicity were based on mortality, functional observational battery (FOB) evaluations, clinical observations, body weight, and body temperature; ophthalmoscopic, electrocardiographic examinations; and anatomic and clinical pathology. The anatomical pathology evaluations included histopathology of a full list of tissues from all animals and a comprehensive evaluation of the central nervous system (including selected peripheral nerves) utilizing whole body perfusion and special stains. Bone marrow smears from all animals were evaluated microscopically. Complete differentials and myeloid-erythroid (ME) ratios were performed. Toxicokinetic assessment was conducted for the test article and metabolites.
Systemic exposure to […] was independent of sex. […] The following discussion is therefore based on data for males and females combined.

Sequence of CYP1A2 (P05177 whole entry): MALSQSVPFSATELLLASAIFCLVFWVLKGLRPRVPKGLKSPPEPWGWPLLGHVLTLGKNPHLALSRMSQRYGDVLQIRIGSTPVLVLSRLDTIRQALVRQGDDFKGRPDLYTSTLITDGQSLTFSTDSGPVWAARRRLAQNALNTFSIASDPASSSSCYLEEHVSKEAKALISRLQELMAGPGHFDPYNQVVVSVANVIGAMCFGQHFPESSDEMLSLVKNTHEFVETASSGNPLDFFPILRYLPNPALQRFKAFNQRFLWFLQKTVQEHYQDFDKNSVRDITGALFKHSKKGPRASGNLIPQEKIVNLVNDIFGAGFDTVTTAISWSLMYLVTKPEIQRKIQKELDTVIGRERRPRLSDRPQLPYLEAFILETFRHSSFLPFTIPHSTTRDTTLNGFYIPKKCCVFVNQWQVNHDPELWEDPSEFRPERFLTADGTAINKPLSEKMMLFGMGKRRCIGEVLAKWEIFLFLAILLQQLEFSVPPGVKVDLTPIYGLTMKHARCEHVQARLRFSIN

## COCCC1CC2CN3CCc4c([nH]c5ccccc45)C(C(=O)OC)(C2)C13.Cl (centres unmarked) [18-MC HCl, 18-Methoxycoronaridine hydrochloride]
Male cynomolgus monkeys; 30, 90, or 270 mg/kg single dose
  cardiovascular parameters, body temperature, respiratory parameters: did not affect
Male cynomolgus monkeys; single dose, highest dose tested
  NOEL on the cardiovascular and respiratory systems: 270 mg/kg
Solubility
  solubility in dimethyl sulfoxide (DMSO): freely soluble
Solubility; 5% dextrose (pH 3.0)
  maximum solubility: 40 mg/mL
Solubility; neutral and alkaline pH
  solubility in aqueous solution: poorly soluble
[1]
  acute dopamine response to cocaine: little effect
  sensitized dopamine response to cocaine: abolished the sensitized dopamine response
CD-1 mice; 100 mg/kg/day group, Days −1 and 12
  mortality: two male mice in the 100 mg/kg/day group were found dead
CD-1 mice; female mice, 100 mg/kg/day
  HED of well tolerated dose: 8 mg/kg/day
CD-1 mice; females
  NOAEL: 100 mg/kg/day
CD-1 mice; male mice, 50 mg/kg/day
  HED of well tolerated dose: 4 mg/kg/day
CD-1 mice; males
  NOAEL: 50 mg/kg/day
CD-1 mice; up to 100 mg/kg/day, except non-adverse decreased body temperature
  neurobehavioral findings, Functional Observational Battery: no noted neurobehavioral findings
[2]; after 3 freeze-thaw (20° C.) cycles
  stability of dosing solution: met the required stability criteria
[2]; after 10 days of refrigerated storage
  homogeneity, concentration acceptability, solubility and stability of dosing formulation: met the applicable ICH criteria
Male Sprague-Dawley rats; 10 mg/kg i.p.
  M50, Test, mean (SEM): 1.94 (0.02) log/Hz
  Threshold (T0), Test, mean (SEM): 1.80 (0.03) log/Hz
Male Sprague-Dawley rats; 40 mg/kg i.p.
  M50, Test, mean (SEM): 1.95 (0.02) log/Hz
  Threshold (T0), Test, mean (SEM): 1.85 (0.03) log/Hz
Male Sprague-Dawley rats; 56 mg/kg i.p.
  M50, Test, mean (SEM): 1.95 (0.02) log/Hz
  Threshold (T0), Test, mean (SEM): 1.85 (0.02) log/Hz
Male Sprague-Dawley rats; 10, 40, 56 mg/kg i.p., 45 minutes before test session, hydrochloride
  effect on ICSS frequency-rate curves, M50 and threshold (T0): did not affect; also recorded: no main effect

## COCC[C@H]1CC2CN3CCc4c([nH]c5ccccc45)[C@](C(=O)OC)(C2)[C@H]13 [18-MC, 18-methoxycoronaridine]
Plasma protein [3]; 200 ng/mL
  % Bound Mean ± SD: 92.9 ± 0.351%
Plasma protein [3]; 600 ng/mL
  % Bound Mean ± SD: 94.9 ± 0.794%
Plasma protein [3]; 5,000 ng/mL
  % Bound Mean ± SD: 90.2 ± 0.153%
Plasma protein [3]; average of 3 concentrations
  Average % Bound Mean ± SD: 92.7 ± 2.36%
CYP1A2
  IC50: > 100 µM
[4]; 3 μM, 1 second BCL
  APD60: statistically significant (p<0.05) shortening
[4]; 10 μM, 0.5 and 1 s BCL
  APD60: statistically significant (P<0.05) shortening
[4]; any concentration tested, two stimulus intervals
  resting membrane potential, action potential amplitude, Vmax: did not induce significant changes
Plasma protein [5]
  protein bound in plasma: 95-98% and 92-98%
[6]; Day 14, 300 mg/kg 18-MC HCl
  AUC: 1210 ng·h/mL
  Cmax: 144 ng/mL
[6]; Day 14, 400 mg/kg 1 day then 300 mg/kg/day, averaged across the sexes
  AUC(0-24): 144000 ng·h/mL
[6]; all dose groups, Days 1 and 14
  time of median peak plasma concentration: ≤ 1 h
